“And” between values parts separate entries of the source, which are not always exact repeats. Equal values may be shown once.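 Values below derive from 48-hour exposures of cells grown in 96-well plates, with endpoints linearly interpolated between the two concentrations bracketing the appropriate inhibition level. GI50 is the concentration that inhibits growth by half. TGI is the concentration that stops growth completely.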
Key:
Assay in all cases: inhibition of tumour cell growth, NCI panel, 48 h
HCT-116 colon = system: HCT-116 colon
OVCAR-3 ovarian = system: OVCAR-3 ovarian
SF-539 CNS = system: SF-539 CNS
KM12 colon = system: KM12 colon
UACC-257 melanoma = system: UACC-257 melanoma
OVCAR-4 ovarian = system: OVCAR-4 ovarian
NCI-H522 lung = system: NCI-H522 lung
HOP-92 NSCLC = system: HOP-92 NSCLC
U251 CNS = system: U251 CNS
SK-MEL-5 melanoma = system: SK-MEL-5 melanoma

Row | SMILES | GI50 (HCT-116 colon) | TGI (HCT-116 colon) | GI50 (OVCAR-3 ovarian) | TGI (OVCAR-3 ovarian) | GI50 (SF-539 CNS) | TGI (SF-539 CNS) | GI50 (KM12 colon) | TGI (KM12 colon) | GI50 (UACC-257 melanoma) | TGI (UACC-257 melanoma) | GI50 (OVCAR-4 ovarian) | TGI (OVCAR-4 ovarian) | GI50 (NCI-H522 lung) | TGI (NCI-H522 lung) | GI50 (HOP-92 NSCLC) | TGI (HOP-92 NSCLC) | GI50 (U251 CNS) | TGI (U251 CNS) | GI50 (SK-MEL-5 melanoma) | TGI (SK-MEL-5 melanoma)
1 | c1ccc(CN=C(NCc2ccccc2)NCc2ccccc2)cc1 | 3.97 µM | 17.3 µM | 3.11 µM | 14.9 µM | 11.9 µM | 27.5 µM | 3.36 µM | 13.1 µM | 3.23 µM | 11.1 µM | 6.23 µM | 36.8 µM | 8.35 µM | 21.3 µM | 3.18 µM | 12.7 µM | 10.2 µM | 23.5 µM | 3.95 µM | 14.6 µM
2 | C=C1C(=O)O[C@@H]2C1C[C@@H](O)C(=C)CC/C=C(\C)CCC[C@H](C)[C@H]2OC(C)=O (stereo not given in full) | 1.4 µM | 3.06 µM | 3.38 µM | 12.6 µM | 12.8 µM | 26.3 µM | 11.4 µM | 26 µM | 16 µM | 35.9 µM | 4.65 µM | 28 µM | 3.55 µM | 12.7 µM | 1.09 µM | 3.76 µM | 5.83 µM | 23.3 µM | 2.76 µM | 10.8 µM
3 | COc1ccc2nc3ccccc3c(NCCCN(C)CCCl)c2c1 |  | 1.36 µM |  | 2.07 µM |  | 1.29 µM |  | 2.06 µM |  | 2.24 µM |  | 2.07 µM |  | 1.15 µM |  | 1.24 µM |  | 1.71 µM |  | 1.59 µM
4 | CC(=O)[C@@]1(O)[C@H](C)C[C@H]2[C@@H]3C=C(C)C4=Cc5c(cnn5-c5ccccc5)C[C@]4(C)[C@H]3[C@@H](O)C[C@@]21C | 2.46 µM | 11.4 µM | 2.08 µM | 4.84 µM | 1.22 µM | 2.85 µM | 1.69 µM | 4.5 µM | 4.06 µM | 13.4 µM | 3.85 µM | 31.1 µM | 2.83 µM | 8.85 µM | 2.42 µM | 14 µM | 1.51 µM | 6.23 µM | 1.61 µM | 4.21 µM
5 | CC(C)(C)OC(=O)NC(CO)c1cccc(OCc2ccccc2)c1 (stereo not given) |  | > 100 µM |  | > 100 µM |  | > 100 µM |  | > 100 µM |  | 99.4 µM |  | > 100 µM |  | > 100 µM |  | > 100 µM |  | > 100 µM |  | > 100 µM
6 | COc1ccc(OC(C(=O)O)c2ccccc2)c2c1CCCC2=O (stereo not given) |  | > 100 µM |  | > 100 µM |  | > 100 µM |  | > 100 µM |  | > 100 µM |  | > 100 µM |  | > 100 µM |  | > 100 µM |  | > 100 µM |  | > 100 µM
7 | CNC(=O)c1cccc2c(Nc3ccc(NS(C)(=O)=O)cc3OC)c3cccc(C)c3nc12 |  | 2.86 µM |  | 5.02 µM |  | 0.661 µM |  | 2.42 µM |  | 10.6 µM |  | 4.35 µM |  | 2.51 µM |  | 3.67 µM |  | 0.719 µM |  | 1.9 µM
8 | O=c1oc2ccc(-n3c(=O)c4ccccc4c4ccccc4c3=O)cc2c2ccccc12 |  | > 100 µM |  | > 100 µM |  | > 100 µM |  | > 100 µM |  | > 100 µM |  | > 100 µM |  | > 100 µM |  | 84.5 µM |  | 63.6 µM |  | > 100 µM
9 | Cc1cc(Oc2ccc3nc(COc4ccc(CC5SC(=O)NC5=O)cc4)n(C)c3c2)cc(C)c1N (stereo not given) | 26.7 µM | > 85.3 µM | 28 µM | > 70.9 µM | 43.3 µM | > 83.4 µM | 26.5 µM | > 76.2 µM | 30.8 µM | > 75.5 µM | 34.2 µM | > 100 µM | 33.2 µM | > 73.9 µM | > 34.4 µM | > 87.5 µM | 32.2 µM | > 94 µM | 15.6 µM | 32.5 µM
10 | Cc1cc(O)cc(C)c1/C=C/c1cncc(-c2nn[nH]n2)c1 | > 25 µM | > 25 µM | > 25 µM | > 25 µM | > 25 µM | > 25 µM | > 25 µM | > 25 µM | > 25 µM | > 25 µM | > 25 µM | > 25 µM | > 25 µM | > 25 µM | > 25 µM | > 25 µM | > 25 µM | > 25 µM | > 25 µM | > 25 µM
11 | CCc1cc2c(cc1N1CCC(N3CCOCC3)CC1)C(C)(C)c1[nH]c3cc(C#N)ccc3c1C2=O | 1.76 µM and 1.79 µM and 3.1 µM | 3.85 µM and 3.6 µM and > 10 µM | 1.68 µM and 1.65 µM | 4 µM and 3.42 µM and 3.91 µM | 1.8 µM and 1.58 µM and 1.62 µM | 3.92 µM and 3.43 µM and 3.86 µM | 0.336 µM and 0.345 µM and 0.347 µM | 5.36 µM and 3.41 µM and > 10 µM | 2.3 µM and 3.2 µM | 21.1 µM and 25.9 µM and > 10 µM | 0.648 µM and 1.35 µM and 1.63 µM | 2.26 µM and 2.86 µM and 3.59 µM | 1.17 µM and 1.69 µM and 1.48 µM | 3.81 µM and 4.88 µM and 5.85 µM | 0.386 µM and 0.179 µM and 0.576 µM | 3.54 µM and 1.23 µM and 4.84 µM | 1.33 µM and 1.43 µM and 1.4 µM | 2.76 µM and 3.28 µM and 2.96 µM | 1.12 µM and 1.5 µM and 3 µM | 19.2 µM and 14.2 µM and > 10 µM
12 | C=C(C)[C@@H]1CC[C@]2(CO)CC[C@]3(C)[C@H](CC[C@@H]4[C@@]5(C)CCC(NCCc6ccc(O)cc6)C(C)(C)[C@@H]5CC[C@]43C)[C@@H]12 (stereo not given in full) | 1.39 µM | 2.84 µM | 1.69 µM | 3.21 µM | 1.63 µM | 3.04 µM | 1.64 µM | 3.29 µM | 1.73 µM | 3.37 µM | 1.7 µM | 3.18 µM | 1.72 µM | 3.33 µM | 1.46 µM | 2.95 µM | 1.56 µM | 2.98 µM | 1.47 µM | 2.8 µM
13 | C[C@H]1[C@H]2[C@H]3CC[C@@H]4[C@@]5(C)C/C(=C/c6cccnc6)C(=O)C(C)(C)[C@@H]5CC[C@@]4(C)[C@]3(C)CC[C@]23CO[C@]1(C)[C@@H](C(=O)/C=C\c1cccnc1)C3 | 0.385 µM | 1.28 µM | 0.886 µM | 1.91 µM | 1.03 µM | 2.31 µM | 0.892 µM | 1.86 µM | 1.74 µM | 9.85 µM | 1.5 µM | > 50 µM | 1.15 µM | 3.07 µM | 0.844 µM | 3.11 µM | 0.964 µM | 2.07 µM | 0.836 µM | 1.54 µM
14 | CCN(CC)CCNc1cc(-c2cccc(OC(F)(F)F)c2)nc2ccc(N3CCCC3)cc12 | 1.24 µM and 1.26 µM and 1.54 µM | 2.52 µM and 2.72 µM and 3.05 µM | 1.82 µM and 1.83 µM and 1.9 µM | 4.11 µM and 3.77 µM and 4.41 µM | 1.68 µM and 1.74 µM and 1.79 µM | 3.2 µM and 3.32 µM and 3.36 µM | 1.71 µM and 1.7 µM and 1.85 µM | 3.51 µM and 3.39 µM and 3.77 µM | 1.81 µM and 1.76 µM | 3.51 µM and 3.32 µM and 3.6 µM | 2.14 µM and 1.62 µM and 3.11 µM | 7.86 µM and 3.67 µM and 12.9 µM | 1.88 µM and 1.64 µM and 1.92 µM | 3.63 µM and 3.24 µM and 4 µM | 1.17 µM and 1.34 µM and 1.51 µM | 2.84 µM and 3.09 µM and 4.68 µM | 1.54 µM and 1.55 µM and 1.71 µM | 3.1 µM and 2.95 µM and 3.35 µM | 1.63 µM and 1.91 µM and 1.7 µM | 2.99 µM and 3.35 µM and 3.17 µM
